Laboratory results reported in US20240299358A1, “COMPOSITIONS AND METHODS FOR DIAGNOSIS AND TREATMENT OF AUTOIMMUNE DISEASES” (DUKE UNIVERSITY, priority 2021, published 2024).

What was measured:
eHsp90 = experiment: Flow cytometry uptake of fluor-tethered Hsp90 inhibitors by T cells from human PBMCs; type: cell-based; settings: anti-CD3/28 stimulated human PBMCs, following activation (FIG. 3A)
Experimental: T-cell activation: PBMC aliquots (ZenBio SER-PBMC-F) were washed in RPMI-1640 with 10% FBS and PSG and then rested overnight in a T-75 flask. The suspended cells were then transferred to a fresh flask and activated in fresh RPMI-1640/10% FBS/PSG by 3:20,000 anti-CD3 (BioLegend 317303), 3:20,000 anti-CD28 (BioLegend 302913), and 1:10,000 (30 IU/mL) human IL-2 (CST 8907SC) and incubated for up to 72 hours. In the experiments with longer activation, samples were diluted 1:3 into fresh media containing hIL-2 at 72 hours post initial stimulation with CD3/CD28 antibodies.
Flow Cytometry: The activated/rested cells were plated into a 96-well round bottom plate and pelleted at low speed. Cells were resuspended in chilled media containing titrated HS-131 or HS-198 (in 1% DMSO) and stained for 30 minutes at RT. Fluorochrome tagged inhibitors and media were washed away with a PBS wash, followed by a PBS wash containing 3% NMS. Surface antibody stains were performed in 3% NMS/PBS for 30 minutes followed by PBS washes (2x). Samples were analyzed on BD FACSCanto II flow cytometer. Permeabilized samples were prepared as previously described followed by fixation in 4% Formaldehyde/PBS overnight at 4° C. Sample analysis was performed with Flowing Software and FlowJo.
A hallmark of T cell function is to proliferate rapidly in response to antigen presentation along with appropriate cytokine and costimulatory signaling. This leads to the induction of the chaperone machinery which is essential in facilitating this process. In some respects, antigen induced T cell proliferation may be analogous to oncogene driven metastasis. Therefore, to investigate whether proliferating T cells similarly express eHsp90 during T cell activation, their ability to absorb fluor-tethered Hsp90 inhibitors following an anti-CD3/CD28 challenge was examined (see. FIGS. 2A-2E). The structures of two types of fluor-tethered Hsp90 inhibitors (HS-131 and […]) that were used in the present studies are shown in FIG. 2A. […]

Human CD3+ T cells = experiment: Cytokine expression after anti-CD3/28 T cell stimulation with or without HS-131; type: cell-based; settings: HS-131 1 μM, 24 hours, vs vehicle
Experimental: The data were analyzed by 2-way ANOVA with Sidak's multiple comparison test, * p<0.05, ** p<0.01. *** p<0.001. Experiments were performed with 6 biological replicates. […] Experiments were performed with 3 biological replicates for each timepoint. […] Experiments were performed with 3 biological replicates for each timepoint. […] Temporal upregulation of eHsp90 (green line) post T cell stimulation. CD25 expression: 6-8 biological replicates per time point. eHsp90 expression 6 biological replicates for each timepoint. […] Data represent mean ±SD. The data were analyzed by 2-way ANOVA with Sidaks multiple comparison test. Experiments were performed once with 3 biological replicates. […] Data represent mean ±SEM. […] Experiment was performed once with 4 biological replicates.
Next, the expression of eHsp90 and total Hsp90 over the course of T cell activation was tracked. Both total Hsp90 cellular content and eHsp90 expression in anti-CD3/28 stimulated human PBMCs were evaluated. […] Specifically, anti-CD3/28 stimulation caused eHsp90 up regulation in CD69+/CD25+ and CD69+/CD25− T-cell populations with a 5-8 fold increase within the first 24 hours post activation, whereas CD69−/CD25− T cells show no increase in probe or eHsp90 levels (see. FIG. 3B). […] One candidate client eHsp90 protein is CD25, the IL-2 receptor. […] Here it was observed that CD25 expression peaked at 72 hours post activation, followed by a reduction in expression thereafter which correlates with reduced eHsp90 expression (see. FIG. 3D). Due to the tight correlation of CD25 and eHsp90 expression, it further tested whether exogenous IL-2 stimulation could maintain high expression of both proteins in activated T cells 72-96 hours post-stimulation. […] Due to IL-2's ability to enhance eHsp90 expression in activated cells, the impacts of eHsp90 inhibition in activated T cells on inflammatory signaling were investigated. Human CD3+ T cells were stimulated with CD3/CD28 activating antibodies for 24 hours in the presence of HS-131. Compared to vehicle treated cells. […] IFNY (p<0.001). IL-17A (p<0.001). MIP-1a/B (p=0.013) and TNF a (p=0.025) (see. FIG. 3F).

**Q.** What does the source list for `Cc1nn(-c2ccc(C(N)=O)c(NCCCOCCOCCOCCOCCOCCCNCc3ccc(C(=C\C=C4\N(CCCCS(=O)(=O)[O-])c5ccccc5C4(C)C)/C=C/C4=[N+](CCCCS(=O)(=O)O)c5ccccc5C4(C)C)cc3)c2)c2c1C(=O)CC(C)(C)C2` [HS-131]?
**A.** eHsp90 expression upregulation as determined by HS-131 binding (eHsp90): 20-25 fold; GM-CSF (Human CD3+ T cells; p<0.001): significantly reduced; IFNY (Human CD3+ T cells; p<0.001): significantly reduced; IL-17A (Human CD3+ T cells; p<0.001): significantly reduced; MIP-1a/B (Human CD3+ T cells; p=0.013): significantly reduced; TNF a (Human CD3+ T cells; p=0.025): significantly reduced
